Drawing on the RepoRT retention time repository (doi:10.1016/j.foodchem.2021.129757), this text covers LC retention time for 23 compounds.

One series can be described thus: RP, Phenomenex Synergi Hydro-RP, 150 × 2 mm, 4 µm, 30 °C, 0.5 mL/min, estimated dead time 0.6 min; A: water + 0.1% formic acid, pH 3; B: acetonitrile + 0.1% formic acid, pH 3; gradient (min/%B) 0/5 1/5 35/45 40/100 45/100. Conditions: stereoisomer not certain.
As to `O=S(=O)(O)Oc1c(O)cccc1O` [Pyrogallol-2-O-sulfate], the LC retention time was 3.77 min.
With `Cn1cnc2c1c(=O)[nH]c(=O)n2C` [theobromine], the LC retention time was 4.64 min.
Still for that read-out and setting: in the case of `O=c1oc2cc(O)ccc2c2ccc(O)cc12` [urolithin A] it was 21 min; in that of `OCCc1ccc(O)c(O)c1` [hydroxytyrosol], 5 min; in that of `OC1C(O)C(O)C(O)C(O)C1O` (configuration not stated) [myo-inositol], 8.53 min.
The same measure, in the same setting: the figure for `O=C(O)c1cc(O)c(O)c(O)c1` [gallic acid] is 2.13 min; for `C[n+]1cccc(C(=O)[O-])c1` [trigonelline] it is 0.731 min.
The same measure, in the same setting: in the case of `C[N+]1(C)CCCC1C(=O)[O-]` (configuration not stated) [stachydrine (proline betaine)] it was 0.844 min; in that of `COc1cc(C=O)ccc1O` [vanillin], 8.67 min; in that of `O=c1oc2cc(O)ccc2c2ccccc12` [urolithin B], 28.6 min.
Consider `COc1cc(C(=O)O)ccc1O` [vanillic acid], for which the LC retention time was 9.27 min.

The next series can be described thus: RP, 150 × 2.1 mm, 2.6 µm, 40 °C, 0.35 mL/min, estimated dead time 0.94 min; A: water + 0.1% formic acid, pH 3; B: acetonitrile + 0.1% formic acid, pH 3; gradient (min/%B) 0/0 1/5 7/45 8.5/80 10.5/80 11/5 12/5. Conditions: stereoisomer not certain.
Consider `COc1cc(C=O)cc(OC)c1O` [Syringaldehyde], for which the LC retention time was 5.66 min.
On the same count and under the same terms, the figure for `Oc1cc(O)c2c(c1)OC(c1cc(O)c(O)c(O)c1)C(O)C2` (single isomer, unassigned; (-)) [(-)-Epigallocatechin] is 4.07 min; for `COc1cc(-c2oc3cc(O)cc(O)c3c(=O)c2OC2OC(COC3OC(C)C(O)C(O)C3O)C(O)C(O)C2O)ccc1O` (configuration not stated) [Isorhamnetin-3-O-rutinoside] it is 5.95 min.
The same measure, in the same setting: the figure for `COc1cc(C=CC(=O)O)cc(OC)c1OC` [o-Methylsinapic acid] is 7.28 min; for `O=c1c(OC2OC(CO)C(O)C(O)C2O)c(-c2ccc(OC3OC(CO)C(O)C(O)C3O)c(O)c2)oc2cc(O)cc(O)c12` (configuration not stated) [Quercetin-3,4'-diglucoside] it is 5.11 min.

The next series can be described thus: RP, Phenomenex Synergi Hydro-RP, 250 × 2 mm, 4 µm, 25 °C, 0.2 mL/min, estimated dead time 2.5 min; A: water + 0.1% formic acid, pH 3; B: acetonitrile + 0.1% formic acid, pH 3; gradient (min/%B) 0/0.5 7/0.5 12/12.5 25/16.3 47/35 48/65 50/65 50.1/0.5. Conditions: stereoisomer not certain.
For `COc1cc(-c2oc3cc(O)cc(O)c3c(=O)c2OC2OC(CO)C(O)C(O)C2O)ccc1O` (configuration not stated) [Isorhamnetin-3-O-glucoside], the LC retention time was 38.7 min.
With `O=c1c(OC2OC(CO)C(O)C(O)C2O)c(-c2ccc(OC3OC(CO)C(O)C(O)C3O)c(O)c2)oc2cc(O)cc(O)c12` (configuration not stated) [Quercetin-3,4'-diglucoside], the LC retention time is 29.1 min.
Turning to `O=C(O)CC(O)C(=O)O` (configuration not stated) [malic acid], the LC retention time was 3.87 min.

The nature of the next series: RP, Agilent InfinityLab Poroshell 120 EC-C18, 100 × 3 mm, 2.7 µm, 25 °C, 0.4 mL/min, estimated dead time 1.1 min; A: water + 0.1% formic acid, pH 3; B: acetonitrile + 0.1% formic acid, pH 3; gradient (min/%B) 0/5 10/25 20/40 24/90 25/90 26/5 30/5. Conditions: stereoisomer not certain.
For the compound `COc1ccc(-c2cc(=O)c3c(OC)c(OC)c(OC)c(OC)c3o2)cc1` [Tangeretin], the LC retention time is 22.8 min.
On the same count and under the same terms, in the case of `Oc1cc(O)c2c(c1)OC(c1cc(O)c(O)c(O)c1)C(O)C2` (single isomer, unassigned; (-)) [(-)-Epigallocatechin] it was 4.79 min.

The nature of another series: RP, Agilent ZORBAX Eclipse XDB-C18, 100 × 2.1 mm, 1.8 µm, 50 °C, 0.4 mL/min, estimated dead time 0.55 min; A: water + 0.1% formic acid, pH 3; B: methanol + 0.1% formic acid, pH 3; gradient (min/%B) 0/2 10/100 14.5/100 14.51/2 16.5/2. Conditions: stereoisomer not certain.
`COc1ccc(-c2cc(=O)c3c(OC)c(OC)c(OC)c(OC)c3o2)cc1` [Tangeretin]: the LC retention time was 8.59 min.
`Cc1c(C)c2c(c(C)c1O)CCC(C)(CCCC(C)CCCC(C)CCCC(C)C)O2` (stereo not drawn) [alpha-tocopherol]: the LC retention time was 12.5 min.

The next series is described as follows: RP, Waters Atlantis T3, 100 × 2.1 mm, 3 µm, 40 °C, 0.3 mL/min, estimated dead time 0.73 min; A: water + 0.1% trifluoroacetic acid, pH 2; B: acetonitrile + 0.1% trifluoroacetic acid, pH 2; gradient (min/%B) 0/10 1/10 6/40 7/50 8/50 14/70 16/80 20/10 25/10. Conditions: stereoisomer not certain.
Regarding `COc1cc(-c2oc3cc(O)cc(O)c3c(=O)c2OC2OC(CO)C(O)C(O)C2O)ccc1O` (configuration not stated) [Isorhamnetin-3-O-glucoside], the LC retention time is 7.94 min.
Still for that read-out and setting: the figure for `Oc1cc(O)c2c(c1)OC(c1cc(O)c(O)c(O)c1)C(O)C2` (single isomer, unassigned; (-)) [(-)-Epigallocatechin] is 2.05 min; for `O=c1c(OC2OC(CO)C(O)C(O)C2O)c(-c2ccc(OC3OC(CO)C(O)C(O)C3O)c(O)c2)oc2cc(O)cc(O)c12` (configuration not stated) [Quercetin-3,4'-diglucoside] it is 6.4 min.

The next series is described as follows: RP, Phenomenex Luna C18, 150 × 4.6 mm, 3 µm, 25 °C, 0.5 mL/min, estimated dead time 3.2 min; A: water + 0.1% formic acid, pH 3; B: acetonitrile + 0.1% formic acid, pH 3; gradient (min/%B) 0/0 30/30 35/40 50/80 52/80 60/0 65/0. Conditions: stereoisomer not certain.
As to `O=c1c(O)c(-c2ccc(OS(=O)(=O)O)c(O)c2)oc2cc(OS(=O)(=O)O)cc(O)c12` [Quercetin disulfate], the LC retention time was 31.6 min.
Take `COc1ccc(-c2cc(=O)c3c(OC)c(OC)c(OC)c(OC)c3o2)cc1` [Tangeretin]: the LC retention time is 49 min.

A short description of the next series: RP, Waters ACQUITY UPLC HSS T3, 100 × 2.1 mm, 1.8 µm, 30 °C, 0.4 mL/min, estimated dead time 0.55 min; A: water + 0.1% formic acid, pH 3; B: acetonitrile + 0.1% formic acid, pH 3; gradient (min/%B) 0/0 2/0 15/100 22/100 22.1/0 26/0. Conditions: stereoisomer not certain.
Consider `COc1ccc(-c2cc(=O)c3c(OC)c(OC)c(OC)c(OC)c3o2)cc1` [Tangeretin], for which the LC retention time is 13.7 min.
Turning to `Cc1c(C)c2c(c(C)c1O)CCC(C)(CCCC(C)CCCC(C)CCCC(C)C)O2` (stereo not drawn) [alpha-tocopherol], the LC retention time was 15.6 min.
On the same count and under the same terms, in the case of `Oc1cc(O)c2c(c1)OC(c1cc(O)c(O)c(O)c1)C(O)C2` (single isomer, unassigned; (-)) [(-)-Epigallocatechin] it was 7.91 min; in that of `C[N+]1(C)CCCC1C(=O)[O-]` (configuration not stated) [Stachydrine], 1.03 min.
Same read-out and setting: in the case of `OC1C(O)C(O)C(O)C(O)C1O` (configuration not stated) [Myo-inositol] it was 0.86 min.

Another series is described as follows: RP, 50 × 0.5 mm, 2.7 µm, 35 °C, 0.01 mL/min, estimated dead time 0.62 min; A: water + 0.1% formic acid, pH 3; B: acetonitrile + 0.1% formic acid, pH 3; gradient (min/%B) 0/5 12/95 14/95 16/5. Conditions: stereoisomer not certain.
For `O=c1c(O)c(-c2ccc(OS(=O)(=O)O)c(O)c2)oc2cc(OS(=O)(=O)O)cc(O)c12` [Quercetin disulfate], the LC retention time was 4.84 min.
Turning to `COc1ccc(-c2cc(=O)c3c(OC)c(OC)c(OC)c(OC)c3o2)cc1` [Tangeretin], the LC retention time is 7.8 min.
Consider `Cc1c(C)c2c(c(C)c1O)CCC(C)(CCCC(C)CCCC(C)CCCC(C)C)O2` (stereo not drawn) [alpha-tocopherol], for which the LC retention time was 13.2 min.
Still for that read-out and setting: in the case of `OC1C(O)C(O)C(O)C(O)C1O` (configuration not stated) [Myo-inositol] it was 2.65 min.
